This is an account of results in US20220380829A1, “Method of Diagonosizing Pathogens and their Antimicrobial Susceptibility” (HANGZHOU DIAN MEDICAL LABORATORY CO., LTD., priority 2019, published 2022).

Assay type in all cases: cell-based
One assay has as its system Candida albicans. Put plainly: Broth microdilution (M27-A3, M27-S4), gold standard culture-based AST. The conditions noted are these: for Results by broth microdilution method: R: number of resistant among 12 blinds; for Results by broth microdilution method: S: number of susceptible among 12 blinds. Here is the method:
Step 1. Sample collection and drug susceptibility verification: 120 clinical Candida albicans isolates were collected from 31 hospitals across china in a period between September 2015 and January 2019. All isolates were tested for drug susceptibility using broth microdilution method following the M27-A3 and M27-S4 guidelines of NCCLS, and the results were used as the gold standard (culture-based AST).

The subject of a further assay is Candida tropicalis. The assay is described as above.
The test system of a further assay is Acinetobacter baumannii. Put plainly: VITEK2 Compact AST (AST-N335 cards), gold standard culture-based AST. Here is the method:
Step 1. Drug susceptibility verification: The Acinetobacter baumannii isolates were tested for drug susceptibility using bioMérieux Vitek2 Compact System and AST-N335 cards, and the results were used as the gold standard (culture-based AST).

The next assay has as its system Enterococcus faecalis. The experiment in a line: VITEK2 Compact AST (AST-P639 cards), gold standard culture-based AST.
The test system of a further assay is Streptococcus pneumoniae. The experiment in a line: VITEK2 Compact AST (AST-GP68 cards) with penicillin disc diffusion, gold standard culture-based AST. Here is the method:
Step 1. Drug susceptibility verification: The Streptococcus pneumoniae isolates were tested for drug susceptibility using bioMérieux Vitek2 Compact System and AST-GP68 cards, and specifically, the susceptibility of penicillin was double checked by disc diffusion method (OXOID, CT0043B), and the combined results were used as the gold standard (culture-based AST).
Step 1. Sample collection and drug susceptibility verification: 48 clinical Streptococcus pneumoniae isolates were collected from 18 hospitals across china in a period between May 2017 and October 2019. All isolates were tested for drug susceptibility using bioMérieux Vitek2 Compact System and AST-GP68 card, and specifically, the susceptibility of penicillin was double checked by disc diffusion method (OXOID, CT0043B), and the combined results were used as the gold standard (culture-based AST).

The mark [1] stands for this setting: Resistance profile classification A.
The mark [2] stands for this setting: Resistance profile classification B.
Setting [3] is: Resistance profile classification C.
[4] abbreviates: Resistance profile classification D.
Setting [5] is: Resistance profile classification E.
Where [6] appears, read: Resistance profile classification F.
[7] abbreviates: Resistance profile classification G.
Where [8] appears, read: Resistance profile classification H.
Setting [9] is: Resistance profile classification I.
Setting [10] is: Resistance profile classification J.
Where [11] appears, read: Resistance profile classification K.
[12] abbreviates: Resistance profile classification L.
[13] abbreviates: Resistance profile classification M.
Where [14] appears, read: Resistance profile classification S.
[15] abbreviates: Resistance profile classification F (first line so labelled, r12).
The mark [16] stands for this setting: Resistance profile classification F (second line so labelled, r13).

Regarding `Nc1nc(=O)[nH]cc1F` [5-Fluorocytosine], in the assay on Candida albicans, the “Results by broth microdilution method: R” value stood at 4 and the “Results by broth microdilution method: S” value is reported as 8.
Turning to `CC[C@H](C)C[C@H](C)CCCCCCCCC(=O)N[C@H]1C[C@@H](O)[C@@H](NCCN)NC(=O)[C@@H]2[C@@H](O)CCN2C(=O)[C@H]([C@H](O)CCN)NC(=O)[C@H]([C@H](O)[C@@H](O)c2ccc(O)cc2)NC(=O)[C@@H]2C[C@@H](O)CN2C(=O)[C@H]([C@@H](C)O)NC1=O` [CAS], the “Resistance profiles by broth microdilution (the gold standard)” value (from here on “Resistance profiles”) with Candida tropicalis (blind-1), in the assay on Candida tropicalis (blind-2), in the assay on Candida tropicalis (blind-3), in the assay on Candida tropicalis (blind-4), in the assay with Candida tropicalis (blind-5) and with Candida tropicalis (blind-6) was “S” in each case.
On to `C[C@@H]1[C@H](O)[C@@H](C)/C=C/C=C/C=C/C=C/C=C/C=C/C=C/[C@H](O[C@@H]2O[C@H](C)[C@@H](O)[C@H](N)[C@@H]2O)C[C@@H]2O[C@](O)(C[C@@H](O)C[C@@H](O)[C@H](O)CC[C@@H](O)C[C@@H](O)CC(=O)O[C@H]1C)C[C@H](O)[C@H]2C(=O)O` [AMB], for which the “Resistance profiles” value in the assay on Candida tropicalis (blind-1), in the assay on Candida tropicalis (blind-2), with Candida tropicalis (blind-3), in the assay on Candida tropicalis (blind-4), with Candida tropicalis (blind-5) and with Candida tropicalis (blind-6) was “S” throughout.
`OC(Cn1cncn1)(Cn1cncn1)c1ccc(F)cc1F` [Fluconazole]: in the assay with Candida albicans, the “Results by broth microdilution method: R” value was found to be 2 and the “Results by broth microdilution method: S” value is 10.
Turning to `Nc1nc(=O)[nH]cc1F` [5-FC], the “Resistance profiles” value in the assay on Candida tropicalis (blind-1), in the assay with Candida tropicalis (blind-2), in the assay on Candida tropicalis (blind-3), in the assay on Candida tropicalis (blind-4), in the assay on Candida tropicalis (blind-5) and in the assay on Candida tropicalis (blind-6) was “S” each time.
Take `CCN1CCN(C(=O)N[C@@H](C(=O)N[C@@H]2C(=O)N3[C@@H]2SC(C)(C)[C@@H]3C(=O)O)c2ccccc2)C(=O)C1=O` [pipercillin, piperacillin]: the “Suscepibility of Acinetobacter baumannii to 12 antibacterial drugs” value (from here on “Suscepibility of Acinetobacter baumannii”) in the assay with Acinetobacter baumannii (setting [1]), in the assay on Acinetobacter baumannii (setting [2]), in the assay with Acinetobacter baumannii (setting [3]), with Acinetobacter baumannii (setting [4]), in the assay with Acinetobacter baumannii (setting [5]) and in the assay on Acinetobacter baumannii (setting [6]) was “R” in each case. Moreover, the “Suscepibility of Acinetobacter baumannii” value in the assay on Acinetobacter baumannii (setting [7]), in the assay with Acinetobacter baumannii (setting [8]), in the assay on Acinetobacter baumannii (setting [9]), in the assay with Acinetobacter baumannii (setting [10]), in the assay on Acinetobacter baumannii (setting [11]) and in the assay on Acinetobacter baumannii (setting [12]) was “R” throughout. For the same compound, the “Suscepibility of Acinetobacter baumannii” value is “R” with Acinetobacter baumannii (setting [13]); “R” with Acinetobacter baumannii (Resistance profile classification N); “S” in the assay with Acinetobacter baumannii (Resistance profile classification O); “S” with Acinetobacter baumannii (Resistance profile classification P); “S” in the assay with Acinetobacter baumannii (Resistance profile classification Q); “S” with Acinetobacter baumannii (Resistance profile classification R). Further, in the assay on Acinetobacter baumannii (setting [14]), the “Suscepibility of Acinetobacter baumannii” value is on record as “S”.
As to `CC[C@H]1OC(=O)[C@H](C)[C@@H](O[C@H]2C[C@@](C)(OC)[C@@H](O)[C@H](C)O2)[C@H](C)[C@@H](O[C@@H]2O[C@H](C)C[C@H](N(C)C)[C@H]2O)[C@](C)(O)C[C@@H](C)C(=O)[C@H](C)[C@@H](O)[C@]1(C)O` [erythromycin], the “Susceptibility of Emterococcus faecalis to 11 antibacterial drugs” value (from here on “Susceptibility of Emterococcus faecalis”) with Enterococcus faecalis (setting [1]) is reported as “R”; in the assay with Enterococcus faecalis (setting [2]), “R”; in the assay on Enterococcus faecalis (setting [3]) it was “R”; with Enterococcus faecalis (setting [4]) it was “S”; with Enterococcus faecalis (setting [15]), “R”; with Enterococcus faecalis (setting [16]) it was “R”. Further, the “Susceptibility of Emterococcus faecalis” value in the assay with Enterococcus faecalis (setting [7]) is reported as “R”; in the assay with Enterococcus faecalis (setting [8]), “R”; with Enterococcus faecalis (setting [9]) it was “R”; in the assay on Enterococcus faecalis (setting [10]), “R”; in the assay with Enterococcus faecalis (setting [11]), “S”; with Enterococcus faecalis (setting [12]), “S”. Also, the “Susceptibility of Emterococcus faecalis” value in the assay with Enterococcus faecalis (setting [13]) and in the assay with Enterococcus faecalis (setting [14]) was “S” each time. Further, the “Blind 1 by AST” value in the assay on Streptococcus pneumoniae is given as “R”. For the same compound, the “blind 2 by AST” value with Streptococcus pneumoniae was “R”.
For `C[C@@H](c1ncncc1F)[C@](O)(Cn1cncn1)c1ccc(F)cc1F` [VOR], the “Resistance profiles” value with Candida tropicalis (blind-1) is “R”; with Candida tropicalis (blind-2) it was “S”; in the assay with Candida tropicalis (blind-3) it was “R”; in the assay on Candida tropicalis (blind-4), “R”; in the assay with Candida tropicalis (blind-5) it was “S”; in the assay with Candida tropicalis (blind-6), “S”.
On to `CCC(C)n1ncn(-c2ccc(N3CCN(c4ccc(OCC5COC(Cn6cncn6)(c6ccc(Cl)cc6Cl)O5)cc4)CC3)cc2)c1=O` (centres unmarked) [ITR], for which the “Resistance profiles” value in the assay on Candida tropicalis (blind-1) was “R”; with Candida tropicalis (blind-2), “S”; in the assay with Candida tropicalis (blind-3), “R”; in the assay on Candida tropicalis (blind-4) it was “R”; with Candida tropicalis (blind-5) it was “S”; with Candida tropicalis (blind-6), “S”.
In the case of `C[C@H]1COc2c(N3CCN(C)CC3)c(F)cc3c(=O)c(C(=O)O)cn1c23` [levofloxacin], the “Susceptibility of Emterococcus faecalis” value in the assay on Enterococcus faecalis (setting [1]) is given as “R”; in the assay with Enterococcus faecalis (setting [2]), “R”; in the assay on Enterococcus faecalis (setting [3]), “R”; with Enterococcus faecalis (setting [4]), “R”; in the assay on Enterococcus faecalis (setting [15]), “S”; in the assay on Enterococcus faecalis (setting [16]) it was “S”. In addition, the “Susceptibility of Emterococcus faecalis” value in the assay on Enterococcus faecalis (setting [7]) is given as “R”; in the assay on Enterococcus faecalis (setting [8]) it was “S”; with Enterococcus faecalis (setting [9]), “R”; with Enterococcus faecalis (setting [10]), “S”; in the assay on Enterococcus faecalis (setting [11]), “R”; with Enterococcus faecalis (setting [12]) it was “R”. For the same compound, the results for the “Susceptibility of Emterococcus faecalis” value in the assay on Enterococcus faecalis (setting [13]) and in the assay with Enterococcus faecalis (setting [14]) were “S” and 8, respectively. In the assay with Streptococcus pneumoniae, the “Blind 1 by AST” value was “S”. In addition, the “blind 2 by AST” value in the assay on Streptococcus pneumoniae was “S”.
With `CC1(C)S[C@@H]2[C@H](NC(=O)[C@H](N)c3ccccc3)C(=O)N2[C@H]1C(=O)O` [ampicillin], the “Susceptibility of Emterococcus faecalis” value with Enterococcus faecalis (setting [1]), with Enterococcus faecalis (setting [2]), in the assay with Enterococcus faecalis (setting [3]), in the assay with Enterococcus faecalis (setting [4]), with Enterococcus faecalis (setting [15]) and in the assay on Enterococcus faecalis (setting [16]) was “R” throughout. For the same compound, the “Susceptibility of Emterococcus faecalis” value in the assay on Enterococcus faecalis (setting [7]), with Enterococcus faecalis (setting [8]), in the assay with Enterococcus faecalis (setting [9]), with Enterococcus faecalis (setting [10]), with Enterococcus faecalis (setting [11]) and with Enterococcus faecalis (setting [12]) was “S” in each case. Also, the “Susceptibility of Emterococcus faecalis” value in the assay with Enterococcus faecalis (setting [13]) and in the assay with Enterococcus faecalis (setting [14]) was “S” each time. The “Susceptibility of Streptococcus pneumoniae to 14 antibacterial drugs” value in the assay on Streptococcus pneumoniae (setting [1]), with Streptococcus pneumoniae (setting [2]), in the assay with Streptococcus pneumoniae (setting [3]), in the assay on Streptococcus pneumoniae (setting [4]), in the assay with Streptococcus pneumoniae (setting [5]) and in the assay on Streptococcus pneumoniae (setting [6]) was “R” each time. Moreover, the “Susceptibility of Streptococcus pneumoniae to 14 antibacterial drugs” value with Streptococcus pneumoniae (setting [7]), in the assay on Streptococcus pneumoniae (setting [8]), in the assay with Streptococcus pneumoniae (setting [9]), with Streptococcus pneumoniae (setting [10]) and with Streptococcus pneumoniae (setting [14]) was “S” each time.
